Data reported in patent US20210213041A1, “REPEAT RNA AS BIOMARKERS OF TUMOR IMMUNE RESPONSE” (The General Hospital Corporation, priority 2018, published 2021).

System: melanoma
Assay: Immunotherapy response of melanoma patients by standard clinical imaging criteria (CT scan change), tumors classed by HSATII RNA-ISH
Type: in vivo, human
Description: All combined RNA-ISH and IHC assays are performed as follows: Monoclonal antibodies for immune cells (T-cell subsets CD3, CD4, CD8, FOXP3; Macrophages CD68, CD163; B-cells CD20; NK cells CD16, CD56) and RNA ISH probes for repeat RNAs (HSATII, HERV-K, HERV-H, LINE1) were sequentially applied on a single histologic slide, and contrasting chromogens were used to visualize the antibody: brown (diaminobenzidine [DAB]) for immune marker and RNA: red (fast red) for repeat RNA. Paraffin-embedded sections were mounted on coated slides and were placed in an oven for 60 minutes at 60° C. The sequential double-staining protocol was performed using the Leica Bond Rx automated immunostainer. […]
As shown herein, HSATII low melanomas respond to immunotherapy including anti-PD1/PDL1 and anti-CTLA4 therapies (FIG. 5). Briefly, a cohort of 20 melanoma patients who received either anti-PD1/PDL1 or anti-CTLA4 therapy that had formalin fixed paraffin embedded (FFPE) tissue were evaluated with HSATII RNA-ISH combined with CD3 T cell IHC assay. Tumors were evaluated for HSATII RNA levels (HIGH vs LOW) and CD3 T cell infiltrates quantitated by manual counting of cells in a 400×200 micron area by a pathologist. […] Tumors were evaluated for HSATII RNA levels (HIGH vs LOW) and CD163 macrophage infiltrates quantitated by manual counting of cells in a 400×200 micron area by a pathologist.

| Substance | immunotherapy response as determined by standard clinical imaging criteria (CT scan change) (HSATII HIGH tumors (low CD3 T-cells)) | immunotherapy response as determined by standard clinical imaging criteria (CT scan change) (HSATII LOW tumors (high CD3 T-cells)) |
| --- | --- | --- |
| nivolumab | non-responder |  |
| ipilimumab |  | responder |
